Test results as given in US7781186B2, “Screening methods using normal human liver cell line” (The United States of America as represented by the …, priority 2000, dated 2010).

Columns and labels:
HepG2 cells = assay type: cell-based, human
Source text: (§1) The cell line of the invention can further be used in a method for assessing toxicity of chemicals or drugs using methods known in the art. For example, lactate dehydrogenase (LDH) leakage from cells into the culture medium is an established method to assess cell injury. Enzyme activity in the culture medium following exposure of cells to a chemical for a certain time will be expressed as percentage of the total of intra- and extracellular enzyme activity. Another example is the determination of cytochrome c release from mitochondria into the cytosol, which is a measure of mitochondria-mediated induction of lethal cell injury. Cells can be exposed to various concentrations of a chemical for various time points. The cells can then be harvested, homogenized, and mitochondria and cytosol isolated by differential centrifugation. The subcellular fractions can then be lysed, loaded onto SDS-PAGE gels, and probed with a specific antibody against cytochrome c.
To determine whether HC04 cells would respond to a standard hepatotoxicant in vitro, the concentration- and time-dependent toxicity of acetaminophen (APAP) was assessed and compared to that in HepG2 cells.

[1] = tested on: mitochondrial permeability transition pore; assay: Membrane permeability transition (mPT), large amplitude swelling at 540 nm, isolated liver mitochondria; assay type: biochemical, mouse
Protocol: (§2) To explore whether LEF (the prodrug) or its active metabolite A77-1726 alter mitochondrial function including the Ca^2+ dependent, cyclosporine A-sensitive mPT, we isolated mouse liver mitochondria and exposed them to LEF or A77-1726, and measured the concentration-dependent effects on the mitochondrial inner transmembrane potential (ΔΨm) using the cationic fluorescent probe, JC-1. Furthermore, the effects on the inductin of the mPT were assessed by monitoring large amplitude swelling at 540 nm. In addition, the effects of LEF were determined in cultured immortalized human hepatocytes (HC04 cell line).

mitochondria = assay: mPT-mediated cytochrome c release from mitochondria; assay type: biochemical
Source text: as §1
Both LEF and A77-1726 attenuated the ΔΨm (at ≧1 uM).

HC04 cell line = assay: Acetaminophen-induced mPT-associated cytotoxicity in cultured immortalized human hepatocytes; assay type: cell-based
Protocol: Furthermore, the effects on the inductin of the mPT were assessed by monitoring large amplitude swelling at 540 nm. In addition, the effects of LEF were determined in cultured immortalized human hepatocytes (HC04 cell line).

mouse liver mitochondria = assay: Mitochondrial inner transmembrane potential (ΔΨm), JC-1 probe, isolated liver mitochondria; assay type: biochemical; details: in vitro
Protocol: as §2, with “[…]-1726” for “A77-1726”, “[…]-1726,” for “A77-1726,”, “nm.” for “nm. In addition, the effects of LEF were determined in cultured immortalized human hepatocytes (HC04 cell line).”

| SMILES | LDH release (indicative of cell injury) (HepG2 cells) | inhibition of the mPT (summary) ([1]; in vitro) | protection from the mPT ([1]; mPT caused by KH2PO4 (2 mM)) | protection from the mPT ([1]; mPT caused by nimesulide (30 uM)) | protection from mPT-mediated cytochrome c release from mitochondria (mitochondria) | protection from acetaminophen-induced mPT-associated cytotoxicity (HC04 cell line) | uncoupling (summary) (mouse liver mitochondria) |
| --- | --- | --- | --- | --- | --- | --- | --- |
| CC(=O)Nc1ccc(O)cc1 [APAP, acetaminophen] | did not respond |  |  |  |  |  |  |
| Cc1oncc1C(=O)Nc1ccc(C(F)(F)F)cc1 [LEF, Leflunomide] |  | potent inhibitors | completely protected | completely protected | protected | completely protected | weak uncouplers |
